“Also recorded” adds a separate entry of the source. Like-named read-outs stand apart in the source and are kept apart here.
Tests used:
[1] = test system: healthy adult subjects; assay: Phase 1 study Part A (SAD), safety and tolerability; assay type: in vivo, human; details: SAD cohorts
Method: Safety data is summarized using descriptive statistics (number of subjects, mean, median, standard deviation, minimum, and maximum) for continuous variables and using frequency and percentages for discrete variables.
Adverse events are coded using the Medical Dictionary for Regulatory Activities. The number of events, incidence, and percentage of TEAEs are calculated overall by system organ class, preferred term, and treatment group for each cohort and treatment group. The number and percentage of subjects with TEAEs are further summarized by severity and relationship to study drug. AEs related to study drug, AEs leading to withdrawal, SAEs, and deaths are also similarly summarized and/or listed in a similar manner.

[2] = molecular target: T1, human APLNR (Homo sapiens, UniProt P35414); assay: cell-based; details: CHO, read-out: maximum effect (Emax)
T1 sequence (P35414 1-380): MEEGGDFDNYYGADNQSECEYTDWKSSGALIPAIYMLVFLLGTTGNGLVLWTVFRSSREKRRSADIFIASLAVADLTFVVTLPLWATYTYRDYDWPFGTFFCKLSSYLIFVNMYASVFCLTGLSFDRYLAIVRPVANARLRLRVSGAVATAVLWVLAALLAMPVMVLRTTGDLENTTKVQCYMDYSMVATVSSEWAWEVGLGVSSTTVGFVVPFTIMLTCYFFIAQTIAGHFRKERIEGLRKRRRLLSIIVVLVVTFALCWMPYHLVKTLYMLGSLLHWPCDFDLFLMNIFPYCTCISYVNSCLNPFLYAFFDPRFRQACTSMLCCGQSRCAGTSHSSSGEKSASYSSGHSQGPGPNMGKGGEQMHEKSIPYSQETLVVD
Method: APLNR activation was determined by β-arrestin recruitment as measured by the ProLink […] complementation technology (93-0001, DiscoveRx). In brief, CHO cells stably expressing APLNR were seeded and incubated overnight at 37° C. The compounds were tested in duplicate and diluted to obtain a 10-point curve with 3-fold serial dilutions (<1% DMSO). The compounds and cells were incubated for 3 hours at 37° C. After the incubation period the detection reagents were added and the plate chemiluminescent signal was measured after 30 min at RT.

[3] = test system: fast and slow skeletal muscle; assay: snRNAseq of vastus lateralis muscle biopsies from Phase 1b study; assay type: in vivo, human
Text: FIG. 40 illustrates nuclei isolation for 10× Genomics single cell transcriptome gene expression technology used to assess tissue samples. […] Tissue samples were collected from patients and processed in a laboratory. Tissues were dissociated and cleaned up. The debris were removed and the sample (e.g., nuclei) was washed, resuspended for multiple cycles according to routine tissue processing procedures. Cell nuclei were visualized and counted using standard transcriptome gene expression technologies 10× Genomics single cell library technology is used for assessing tissue samples.
Cell type clustered include fast skeletal muscle, slow skeletal muscle (type 1), myofibroblast, tenocytes, fibroblasts, muscle stem cells, pericytes, smooth muscle, endothelial cells, T/NK cells, and adipocytes. Two methods and two annotations were used.

[4] = test system: serum proteome; assay: Phase 1b bed rest study, serum proteomic profiling; assay type: in vivo, human
Method: Proteomic profiling and analysis were performed on serum collected from the phase 1B clinical trial subjects (treated vs placebo) as described above. Eleven (11) treated and 10 placebo subject's serum levels were profiled for their proteomics collected at day −1 (baseline), day 5 and day 11. A linear regression model was implemented with an interaction term between treatment group and day to identify proteins whose differential abundance between the treatment groups influenced the average rate of change per day of a given protein. This model was fit separately for all proteins measured, and the resulting coefficient (on the interaction term) for each protein was used to rank order all proteins from most positive to most negative coefficient.
For each human aging cohort phenotype (various physical function phenotypes and mortality), two protein sets consisting respectively (to preserve directionality) of the proteins positively and negatively associated (p<0.05) with that phenotype. Significant phenotypes in the right-hand graph of FIG. 48 and FIG. 49 with their GSEA plots and p-values (significant phenotypes were not shown when their protein sets overlapped substantially with those of already shown phenotypes).

[5] = Phase 1 study BGE-105-101 Part A (SAD), pharmacokinetics after IV infusion; assay type: in vivo, human; details: for Dose-normalized AUCinf / Dose-normalized Cmax: unit assumed; for AUC(0-t) / AUC(0-inf) / half-life / Cmax: human, plasma; for AUC(0-t) / AUC(0-inf) / half-life: intravenous; for Cmax: iv, IV infusion
Method: After a baseline period of 24 hours in the clinic, all subjects receive a LD, 1-hour infusion on Day 1. After a 48-hour wash-out period, in which PK and PK/PD data is collected, subjects receive a 23-hour infusion (1-hour LD followed by a 22-hour maintenance dose). See FIG. 10 for the different dose levels in each SAD cohort. See e.g., Table 3 below. Part A is double-blinded. The cohorts of Part A is conducted sequentially starting with SAD cohort 1.
On Day 1 for Part A, subjects receive LD, 1-hour infusion. On Day 3, after a 48-hour washout period, subjects then receive a 23-hour infusion (1-hour LD followed by a 22-hour MD). No earlier than 24 hours after the end of infusion, subjects is discharged from the clinic on Day 5 (End of Treatment Period [EOTP]). A treatment protocol for the SAD cohorts of Part A is outlined in FIG. 12 and is described in Table 9 below.
Relevant plasma PK parameters are derived for BGE-105 by standard noncompartmental methods and tabulated along with descriptive statistics and graphs.

[6] = SAD1 (60 mg/360 mg), Day 1, mean
[7] = SAD2 (120 mg/720 mg), Day 1, mean
[8] = SAD3 (240 mg/1440 mg), Day 1, mean

For `COc1cccc(OC)c1-n1c(NS(=O)(=O)[C@@H](C)[C@H](C)c2ncc(C)cn2)nnc1-c1cncc(C)c1` [BGE-105, (2S,3R)—N-(4-(2,6-dimethoxyphenyl)-5-(5-methyl-3-pyridinyl)-4H-1,2,4-triazol-3-yl)-3-(5-methyl-2-pyrimidinyl)-2-butanesulfonamide], the serious adverse events [1] was “no serious adverse events”, the tolerability ([1]; all doses including 240 mg/1440 mg) was “well tolerated” and the Emax [2] was 114%. The “number of muscle proteins (out of 18) statistically highly expressed in fast skeletal muscle” value ([3]; treated compared to placebo) was 15, the “differentially expressed genes associated with treatment, fast skeletal muscle” value ([3]; vastus lateralis biopsies) was 3418 and the “differentially expressed genes associated with treatment, slow skeletal muscle (Type 1)” value ([3]; vastus lateralis biopsies) was 1571. For the same compound, the “number of proteins associated with grip strength (out of 379) changed by treatment” value [4] was 58, the “number of proteins associated with walk speed (out of 526) changed by treatment” value [4] was 35 and the “number of proteins associated with frailty (out of 992) changed by treatment” value ([4]; p<0.05) was 69. The “dose proportionality / linearity of PK” value ([5]; 3 SAD cohorts, dose vs Cmax and AUC) was “dose proportionality; also recorded: linear”, the Dose-normalized AUCinf [5, 6] was 0.66 µg·h/mL/mg and the Dose-normalized Cmax [5, 6] was 0.12 µg/mL/mg. The Dose-normalized AUCinf [5, 7] was 0.49 µg·h/mL/mg, the Dose-normalized Cmax [5, 7] was 0.11 µg/mL/mg and the Dose-normalized AUCinf [5, 8] was 0.5 µg·h/mL/mg. It also gave a Dose-normalized Cmax [5, 8] of 0.11 µg/mL/mg, an AUC(0-t) ([5]; 60 mg, SAD1 (60 mg/360 mg), Day 1, mean, read-out: AUC0-24) of 34.7 µg·h/mL and an AUC(0-t) ([5]; 60 mg, SAD1 (60 mg/360 mg), Day 1, mean, read-out: AUClast) of 37.4 µg·h/mL. For the same compound, the AUC(0-t) ([5]; 120 mg, SAD2 (120 mg/720 mg), Day 1, mean, read-out: AUC0-24) was 53.7 µg·h/mL, the AUC(0-t) ([5]; 120 mg, SAD2 (120 mg/720 mg), Day 1, mean, read-out: AUClast) was 56.8 µg·h/mL and the AUC(0-t) ([5]; 240 mg, SAD3 (240 mg/1440 mg), Day 1, mean, read-out: AUC0-24) was 107 µg·h/mL. The AUC(0-t) ([5]; 240 mg, SAD3 (240 mg/1440 mg), Day 1, mean, read-out: AUClast) was 114 µg·h/mL, the AUC(0-t) ([5]; SAD1 (60 mg/360 mg), Day 3, mean, read-out: AUC0-24) was 173 µg·h/mL and the AUC(0-t) ([5]; SAD1 (60 mg/360 mg), Day 3, mean, read-out: AUClast) was 306 µg·h/mL. It also gave an AUC(0-t) ([5]; SAD2 (120 mg/720 mg), Day 3, mean, read-out: AUC0-24) of 267 µg·h/mL, an AUC(0-t) ([5]; SAD2 (120 mg/720 mg), Day 3, mean, read-out: AUClast) of 450 µg·h/mL and an AUC(0-t) ([5]; SAD3 (240 mg/1440 mg), Day 3, mean, read-out: AUC0-24) of 612 µg·h/mL. For the same compound, the AUC(0-t) ([5]; SAD3 (240 mg/1440 mg), Day 3, mean, read-out: AUClast) was 1060 µg·h/mL, the AUC(0-t) ([5]; highest dose (240 mg/1440 mg), read-out: AUClast) was 1060 µg·h/mL and the AUC(0-inf) [5, 6] was 39.6 µg·h/mL. The half-life [5, 6] was 9.1 h, the AUC(0-inf) [5, 7] was 58.8 µg·h/mL and the half-life [5, 7] was 8.6 h. The AUC(0-inf) [5, 8] was 119 µg·h/mL, the half-life [5, 8] was 8.9 h and the Cmax ([5]; 60 mg, SAD1 (60 mg/360 mg), Day 1, mean) was 7430 ng/mL. The Cmax ([5]; 120 mg, SAD2 (120 mg/720 mg), Day 1, mean) was 13700 ng/mL, the Cmax ([5]; 240 mg, SAD3 (240 mg/1440 mg), Day 1, mean) was 26700 ng/mL and the Cmax ([5]; SAD1 (60 mg/360 mg), Day 3, mean) was 10100 ng/mL. For the same compound, the Cmax ([5]; SAD2 (120 mg/720 mg), Day 3, mean) was 14800 ng/mL and the Cmax ([5]; SAD3 (240 mg/1440 mg), Day 3, mean) was 35600 ng/mL.
